Results reported in patent EP0423727B1, “Silver halide color photographic material containing colored coupler” (FUJI PHOTO FILM CO., LTD., priority 1989, dated 1991).

Assay: spectral absorption of the colored coupler in methanol
Type: physicochemical
Procedure: 10.1 g of compound c synthesized by the method described in U.S. Patent 4,138,258 was dissolved in 60 ml of N,N-dimethylformamide and 60 ml of methyl cellosolve. While cooling the resulting solution with ice, 4.3 ml of concentrated hydrochloric acid was added thereto and a solution of 1.84 g of sodium nitrite in 5 ml of water was added dropwise thereto to prepare a diazonium solution. 60 ml of methyl cellosolve and 20 ml of water were added to 7.8 g of the compound b and 8.2 g of sodium acetate. While stirring the resulting solution under ice cooling, the above diazonium solution was added dropwise thereto. After dropwise addition, the mixture was stirred for one hour and then at room temperature for 2 hours. The precipitated crystal was recovered by filtration, washed with water, dried and dispersed in 500 ml of methanol. The dispersion was heated to reflux for one hour and then allowed to stand to cool it. The crystal was recovered by filtration, washed with methanol and dried to give 13.6 g of the desired coupler (1) as a red crystal with a melting point of 269 to 272°C (decomposition). The structure of the compound was confirmed by ¹HNMR spectrum, mass spectrum and elemental analysis.
75 ml of methyl cellosolve and 26 ml of water were added to 10.1 g of the compound b and 10.7 g of sodium acetate. While stirring the resulting solution under ice cooling, the above diazonium solution was added dropwise thereto. After dropwise addition, the mixture was stirred for one hour and then at room temperature for 2 hours. The precipitated crystal was recovered by filtration and dispersed in 200 ml of methanol. A solution of 2.2 g of sodium hydroxide in 10 ml of water was added dropwise thereto. The mixture was stirred for 3 hours and neutralized with concentrated hydrochloric acid. The precipitated crystal was washed with water and then methanol and dried. The resulting crude crystal was purified from hot methanol in the same manner as in Synthesis Example 1 to give 14.8 g of the desired coupler (3) with a melting point of 246 to 251°C (decomposition). […]

spectral absorption characteristics as a yellow colored coupler: good | maximum absorption wavelength (in methanol): 458.2 nm | molecular extinction coefficient (in methanol): 42800
SMILES: CCCCCCCCC(CCCCCC)COCCCNC(=O)c1cc(OCCOc2ccc(N=Nc3c(C)c(C#N)c(=O)n(-c4ccccc4C(=O)O)c3O)cc2)c2ccccc2c1O (stereo not drawn) [(22)]
